target: T1, JNK1 (Homo sapiens, UniProt P45983); assay: JNK1 biochemical assays (one or more of: time resolved fluorescence, Z'-LYTE Cascade, radioactive); conditions: one or more of the JNK1 biochemical assays; read-out: Act. Level (JNK1 IC50 activity level)
T1 construct: purchased Carna Biosciences
T1 sequence (P45983 whole entry): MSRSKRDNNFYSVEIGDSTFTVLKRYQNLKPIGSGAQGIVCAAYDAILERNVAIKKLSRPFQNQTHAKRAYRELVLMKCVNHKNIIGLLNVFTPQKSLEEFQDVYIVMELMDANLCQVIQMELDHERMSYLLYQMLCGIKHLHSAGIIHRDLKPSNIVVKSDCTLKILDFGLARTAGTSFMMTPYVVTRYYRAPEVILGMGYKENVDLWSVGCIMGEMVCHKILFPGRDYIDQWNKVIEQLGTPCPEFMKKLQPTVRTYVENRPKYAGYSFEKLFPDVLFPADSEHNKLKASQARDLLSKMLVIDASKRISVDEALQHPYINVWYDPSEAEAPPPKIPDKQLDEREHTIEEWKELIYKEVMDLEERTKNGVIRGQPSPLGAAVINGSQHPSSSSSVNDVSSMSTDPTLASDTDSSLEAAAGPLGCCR

IC50, < 200 nM:
CC1(Nc2ncc(C(N)=O)c(NC3CCC(C)(C)C(O)C3)n2)CC1 (stereo not drawn) [Example 431, 4-(3-hydroxy-4,4-dimethylcyclohexylamino)-2-(1-methylcyclopropylamino)pyrimidine-5-carboxamide]
CC1(C)CCC(Nc2nc(NC34CC(C3)C4)ncc2C(N)=O)CC1O (stereo not drawn) [Example 432, 2-(bicyclo[1.1.1]pentan-1-ylamino)-4-(3-hydroxy-4,4-dimethylcyclohexylamino)pyrimidine-5-carboxamide]
NC(=O)c1cnc(N[C@@H]2CCC[C@H](O)C2)nc1NC1CCC1 [Example 433, 4-(cyclobutylamino)-2-((1R,3S)-3-hydroxycyclohexylamino)pyrimidine-5-carboxamide]
NC(=O)c1cnc(N[C@H]2CC[C@H](OC3CC3)CC2)nc1NC1CCC1 [Example 434, 4-(cyclobutylamino)-2-((1r,4r)-4-cyclopropoxycyclohexylamino)pyrimidine-5-carboxamide]
NC(=O)c1cnc(NC2CCOCC2)nc1NC1CCC1 [Example 435, 4-(cyclobutylamino)-2-(tetrahydro-2H-pyran-4-ylamino)pyrimidine-5-carboxamide]
NC(=O)c1cnc(N[C@H]2CC[C@H](OC(F)F)CC2)nc1NC1CCC1 [Example 436, 4-(cyclobutylamino)-2-((1r,4r)-4-(difluoromethoxy)cyclohexylamino)pyrimidine-5-carboxamide]
CN(C)C(=O)[C@H]1CC[C@H](Nc2ncc(C(N)=O)c(NC3CCC3)n2)CC1 [Example 437, 4-(cyclobutylamino)-2-((1r,4r)-4-(dimethylcarbamoyl)cyclohexylamino)pyrimidine-5-carboxamide]
CC1(Nc2ncc(C(N)=O)c(N[C@@H]3CCC[C@H](O)C3)n2)CC1 [Example 438, 4-((1R,3S)-3-hydroxycyclohexylamino)-2-(1-methylcyclopropylamino)pyrimidine-5-carboxamide]
NC(=O)c1cnc(NC2CCCC2)nc1N[C@@H]1CCC[C@H](O)C1 [Example 439, 2-(cyclopentylamino)-4-((1R,3S)-3-hydroxycyclohexylamino)pyrimidine-5-carboxamide]
NC(=O)c1cnc(N[C@H]2CC[C@H](O)CC2)nc1NC12CC(C(F)(F)F)(C1)C2 [Example 440, 2-((1r,4r)-4-hydroxycyclohexylamino)-4-(3-(trifluoromethyl)bicyclo[1.1.1]pentan-1-ylamino)pyrimidine-5-carboxamide]
C[C@@H]1CC[C@@H](Nc2nc(NC34CC(C(F)(F)F)(C3)C4)ncc2C(N)=O)C[C@H]1O [Example 441, 4-((1R,3R,4R)-3-hydroxy-4-methylcyclohexylamino)-2-(3-(trifluoromethyl)bicyclo[1.1.1]pentan-1-ylamino)pyrimidine-5-carboxamide]
CC12CC(Nc3nc(N[C@H]4CC[C@H](OC5CC5)CC4)ncc3C(N)=O)(C1)C2 [Example 442, 2-((1r,4r)-4-cyclopropoxycyclohexylamino)-4-(3-methylbicyclo[1.1.1]pentan-1-ylamino)pyrimidine-5-carboxamide]
CCO[C@H]1CC[C@H](Nc2ncc(C(N)=O)c(NC34CC(C)(C3)C4)n2)CC1 [Example 443, 2-((1r,4r)-4-ethoxycyclohexylamino)-4-(3-methylbicyclo[1.1.1]pentan-1-ylamino)pyrimidine-5-carboxamide]
C[C@@H]1CC[C@@H](Nc2nc(NC3CC(F)(F)C3)ncc2C(N)=O)C[C@H]1O [Example 444, 2-(3,3-difluorocyclobutylamino)-4-((1R,3R,4R)-3-hydroxy-4-methylcyclohexylamino)pyrimidine-5-carboxamide]
CC(C)(Nc1nc(NC23CCC(O)(CC2)C3)ncc1C(N)=O)C1CC1 [Example 445, 4-(2-cyclopropylpropan-2-ylamino)-2-(4-hydroxybicyclo[2.2.1]heptan-1-ylamino)pyrimidine-5-carboxamide]
CC1(Nc2nc(NC34CCC(O)(CC3)C4)ncc2C(N)=O)CCCC1 [Example 446, 2-(4-hydroxybicyclo[2.2.1]heptan-1-ylamino)-4-(1-methylcyclopentylamino)pyrimidine-5-carboxamide]
NC(=O)c1cnc(NC23CCC(O)(CC2)C3)nc1NC1CCC1 [Example 447, 4-(cyclobutylamino)-2-(4-hydroxybicyclo[2.2.1]heptan-1-ylamino)pyrimidine-5-carboxamide]
NC(=O)c1cnc(N[C@H]2CCCOC2)nc1NC1CCC1 [Example 448, (S)-4-(cyclobutylamino)-2-(tetrahydro-2H-pyran-3-ylamino)pyrimidine-5-carboxamide]
C[C@@H](Nc1nc(NC23CCC(O)(CC2)C3)ncc1C(N)=O)C1CC1 [Example 450, (R)-4-(1-cyclopropylethylamino)-2-(4-hydroxybicyclo[2.2.1]heptan-1-ylamino)pyrimidine-5-carboxamide]
CC1(Nc2nc(NC34CCC(O)(CC3)C4)ncc2C(N)=O)CCC1 [Example 451, 2-(4-hydroxybicyclo[2.2.1]heptan-1-ylamino)-4-(1-methylcyclobutylamino)pyrimidine-5-carboxamide]
CCC(C)(C)Nc1nc(NC23CCC(O)(CC2)C3)ncc1C(N)=O [Example 452, 2-(4-hydroxybicyclo[2.2.1]heptan-1-ylamino)-4-(tert-pentylamino)pyrimidine-5-carboxamide]
NC(=O)c1cnc(N[C@H]2CC[C@H](O)CC2)nc1NC1C2CC1C2 (stereo partly drawn) [Example 453, 4-(bicyclo[1.1.1]pentan-2-ylamino)-2-((1r,4r)-4-hydroxycyclohexylamino)pyrimidine-5-carboxamide]
CCC1(Nc2nc(N[C@H]3CC[C@H](OC)CC3)ncc2C(N)=O)CCCC1 [Example 454, 4-(1-ethylcyclopentylamino)-2-((1r,4r)-4-methoxycyclohexylamino)pyrimidine-5-carboxamide]
CCC1(Nc2nc(N[C@H]3CC[C@H](O)CC3)ncc2C(N)=O)CCCC1 [Example 455, 4-(1-ethylcyclopentylamino)-2-((1r,4r)-4-hydroxycyclohexylamino)pyrimidine-5-carboxamide]
CC(C)(Nc1nc(N[C@H]2CCC[C@H](O)C2)ncc1C(N)=O)C1CC1 [Example 456, 4-(2-cyclopropylpropan-2-ylamino)-2-((1S,3S)-3-hydroxycyclohexylamino)pyrimidine-5-carboxamide]
CC(C)(Nc1nc(N[C@H]2CCC[C@@H](O)C2)ncc1C(N)=O)C1CC1 [Example 457, 4-(2-cyclopropylpropan-2-ylamino)-2-((1S,3R)-3-hydroxycyclohexylamino)pyrimidine-5-carboxamide]
NC(=O)c1cnc(N[C@]23CC[C@@](O)(CC2)C3)nc1NC12CC(C1)C2 [Example 458, 4-(bicyclo[1.1.1]pentan-1-ylamino)-2-((1r,4r)-4-hydroxybicyclo[2.2.1]heptan-1-ylamino)pyrimidine-5-carboxamide]
C[C@@H]1CC[C@@H](Nc2nc(N[C@H](C)C3CCC3)ncc2C(N)=O)C[C@H]1O [Example 459, 2-((R)-1-cyclobutylethylamino)-4-((1R,3R,4R)-3-hydroxy-4-methylcyclohexylamino)pyrimidine-5-carboxamide]
C[C@H](Nc1ncc(C(N)=O)c(N[C@@H]2CC[C@@H](C)[C@H](O)C2)n1)C1CCC1 [Example 460, 2-((S)-1-cyclobutylethylamino)-4-((1R,3R,4R)-3-hydroxy-4-methylcyclohexylamino)pyrimidine-5-carboxamide]
C[C@@H]1CC[C@@H](Nc2nc(N[C@H](C)C(C)(C)C)ncc2C(N)=O)C[C@H]1O [Example 461, 2-((R)-3,3-dimethylbutan-2-ylamino)-4-((1R,3R,4R)-3-hydroxy-4-methylcyclohexylamino)pyrimidine-5-carboxamide]
CCO[C@H]1CC[C@H](Nc2ncc(C(N)=O)c(NC34CCC(C3)C4)n2)CC1 [Example 462, 4-(bicyclo[2.1.1]hexan-1-ylamino)-2-((1r,4r)-4-ethoxycyclohexylamino)pyrimidine-5-carboxamide]
CCC1(Nc2nc(N[C@H]3CC[C@H](OC4CC4)CC3)ncc2C(N)=O)CCCC1 [Example 463, 2-((1r,4r)-4-cyclopropoxycyclohexylamino)-4-(1-ethylcyclopentylamino)pyrimidine-5-carboxamide]
CCO[C@H]1CC[C@H](Nc2ncc(C(N)=O)c(NC3(CC)CCCC3)n2)CC1 [Example 464, 2-((1r,4r)-4-ethoxycyclohexylamino)-4-(1-ethylcyclopentylamino)pyrimidine-5-carboxamide]
CC(C)(Nc1nc(N[C@@H]2CCC[C@@H](O)C2)ncc1C(N)=O)C1CC1 [Example 465, 4-(2-cyclopropylpropan-2-ylamino)-2-((1R,3R)-3-hydroxycyclohexylamino)pyrimidine-5-carboxamide]
CC(C)(Nc1nc(N[C@@H]2CCC[C@H](O)C2)ncc1C(N)=O)C1CC1 [Example 466, 4-(2-cyclopropylpropan-2-ylamino)-2-((1R,3S)-3-hydroxycyclohexylamino)pyrimidine-5-carboxamide]
CC(C)(Nc1nc(NC2CCOCC2)ncc1C(N)=O)C1CC1 [Example 467, 4-(2-cyclopropylpropan-2-ylamino)-2-(tetrahydro-2H-pyran-4-ylamino)pyrimidine-5-carboxamide]

Source: patent publication US12129237B2, “Substituted diaminocarboxamide and diaminocarbonitrile pyrimidines, compositions thereof, and methods of treatment therewith” (SIGNAL PHARMACEUTICALS, LLC, priority 2011, dated 2024)
